In the supplement of paper PMC10883282:
Structures can show the parent of a compound that is named as a salt. ± gives the standard deviation of the averaged measurements.

Tested on: SK-ES-1
Assay: relative viability vs DMSO control (72 h) (fraction); higher = more viable cells
Summary of the method: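 Relative viability is percent growth read by ATPLite and averaged over up to triplicate wells. Sarcoma cells were seeded in 384-well plates to reach 80–90% confluence and given 2.5 µl of serially diluted compound after 24 h, from source plates of 10 mM to 0.0002 mM. Incubation lasted 72 h at 37 °C, 5% CO2, with 0.1% DMSO vehicle and a 5 µM positive control, and the data were rescaled so 1 equals full and 0 equals none.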

O=C(Nc1cnn2ccc(N3CCC[C@@H]3c3cc(F)ccc3F)nc12)N1CC[C@H](O)C1 [Larotrectinib]
relative viability (0.00017 µM): 1.01 ± 0.018
relative viability (0.00051 µM): 1.04 ± 0.048
relative viability (0.00152 µM): 1.04 ± 0.026
relative viability (0.00457 µM): 1.04 ± 0.064
relative viability (0.01372 µM): 1.04 ± 0.038
relative viability (0.04115 µM): 1.03 ± 0.053
relative viability (0.1235 µM): 1 ± 0.02
relative viability (0.3704 µM): 1.02 ± 0.062
relative viability (1.111 µM): 1 ± 0.03
relative viability (3.333 µM): 0.969 ± 0.034
relative viability (10 µM): 1.03 ± 0.058

C[C@@H]1COCCN1c1cc(-c2ccnn2C)c2ccnc(-c3ccn[nH]3)c2n1
relative viability (0.00017 µM): 1.03 ± 0.031
relative viability (0.00051 µM): 1.05 ± 0.03
relative viability (0.00152 µM): 1.03 ± 0.052
relative viability (0.00457 µM): 1.09 ± 0.055
relative viability (0.01372 µM): 1.05 ± 0.039
relative viability (0.04115 µM): 0.856 ± 0.024
relative viability (0.1235 µM): 0.562 ± 0.037
relative viability (0.3704 µM): 0.285 ± 0.0067
relative viability (1.111 µM): 0.156 ± 0.0046
relative viability (3.333 µM): 0.101 ± 0.0046
relative viability (10 µM): 0.112 ± 0.0035

CC(C)N1CCN(Cc2cnc(-c3cc(-c4cccc5[nH]ccc45)cc4[nH]ncc34)o2)CC1 [Nemiralisib]
relative viability (0.00017 µM): 0.934 ± 0.039
relative viability (0.00051 µM): 0.915 ± 0.03
relative viability (0.00152 µM): 0.945 ± 0.034
relative viability (0.00457 µM): 0.932 ± 0.035
relative viability (0.01372 µM): 0.985 ± 0.068
relative viability (0.04115 µM): 0.957 ± 0.041
relative viability (0.1235 µM): 0.977 ± 0.026
relative viability (0.3704 µM): 0.961 ± 0.055
relative viability (1.111 µM): 0.931 ± 0.04
relative viability (3.333 µM): 0.76 ± 0.027
relative viability (10 µM): 0.114 ± 0.053

COc1cccc2c1C(=O)c1c(O)c3c(c(O)c1C2=O)C[C@@](O)(C(=O)CO)C[C@@H]3O[C@H]1C[C@H](N)[C@H](O)[C@H](C)O1 [Doxorubicin Hydrochloride]
relative viability (0.00017 µM): 0.999 ± 0.033
relative viability (0.00051 µM): 1.05 ± 0.074
relative viability (0.00152 µM): 1 ± 0.057
relative viability (0.00457 µM): 0.991 ± 0.085
relative viability (0.01372 µM): 0.604 ± 0.065
relative viability (0.04115 µM): 0.307 ± 0.025
relative viability (0.1235 µM): 0.123 ± 0.014
relative viability (0.3704 µM): 0.0254 ± 0.0066
relative viability (1.111 µM): 0.000533 ± 0.00072
relative viability (3.333 µM): -0.000167 ± 0.00091
relative viability (10 µM): 0.00357 ± 0.00093

Nc1cc(C(F)(F)F)c(-c2cc(N3CCOCC3)nc(N3CCOCC3)n2)cn1 [Buparlisib]
relative viability (0.00017 µM): 1.03 ± 0.025
relative viability (0.00051 µM): 1 ± 0.052
relative viability (0.00152 µM): 1.02 ± 0.037
relative viability (0.00457 µM): 1.04 ± 0.035
relative viability (0.01372 µM): 1.03 ± 0.029
relative viability (0.04115 µM): 1.04 ± 0.019
relative viability (0.1235 µM): 0.93 ± 0.033
relative viability (0.3704 µM): 0.749 ± 0.035
relative viability (1.111 µM): 0.157 ± 0.014
relative viability (3.333 µM): 0.041 ± 0.00093
relative viability (10 µM): 0.0484 ± 0.0029

Cc1cc(Nc2ncnc3ccc(NC4=NC(C)(C)CO4)cc23)ccc1Oc1ccn2ncnc2c1 [Tucatinib]
relative viability (0.00017 µM): 1.07 ± 0.025
relative viability (0.00051 µM): 1.04 ± 0.043
relative viability (0.00152 µM): 1.06 ± 0.039
relative viability (0.00457 µM): 1.1 ± 0.022
relative viability (0.01372 µM): 1.13 ± 0.064
relative viability (0.04115 µM): 1.06 ± 0.059
relative viability (0.1235 µM): 1.08 ± 0.079
relative viability (0.3704 µM): 1.06 ± 0.019
relative viability (1.111 µM): 1.01 ± 0.011
relative viability (3.333 µM): 0.98 ± 0.023
relative viability (10 µM): 0.883 ± 0.017

Cc1nc(-c2cn3c(n2)-c2ccc(-c4cnn(C(C)(C)C(N)=O)c4)cc2OCC3)n(C(C)C)n1 [Taselisib]
relative viability (0.00017 µM): 0.973 ± 0.069
relative viability (0.00051 µM): 0.984 ± 0.066
relative viability (0.00152 µM): 0.985 ± 0.013
relative viability (0.00457 µM): 0.994 ± 0.028
relative viability (0.01372 µM): 0.899 ± 0.074
relative viability (0.04115 µM): 0.761 ± 0.038
relative viability (0.1235 µM): 0.541 ± 0.045
relative viability (0.3704 µM): 0.41 ± 0.012
relative viability (1.111 µM): 0.348 ± 0.017
relative viability (3.333 µM): 0.288 ± 0.012
relative viability (10 µM): 0.22127 ± 0.00015

CN1CCC(COc2cnc(-c3cccc(Cn4nc(-c5cccc(C#N)c5)ccc4=O)c3)nc2)CC1 [Tepotinib]
relative viability (0.00017 µM): 0.997 ± 0.018
relative viability (0.00051 µM): 1.08 ± 0.037
relative viability (0.00152 µM): 1.06 ± 0.026
relative viability (0.00457 µM): 1.06 ± 0.023
relative viability (0.01372 µM): 1.02 ± 0.018
relative viability (0.04115 µM): 1.06 ± 0.028
relative viability (0.1235 µM): 1.003 ± 0.0064
relative viability (0.3704 µM): 1 ± 0.037
relative viability (1.111 µM): 0.974 ± 0.045
relative viability (3.333 µM): 0.98 ± 0.038
relative viability (10 µM): 0.718 ± 0.031

CNC(=O)c1cc(Oc2ccc(NC(=O)Nc3ccc(Cl)c(C(F)(F)F)c3)c(F)c2)ccn1 [Regorafenib]
relative viability (0.00017 µM): 1.11 ± 0.054
relative viability (0.00051 µM): 1.03 ± 0.027
relative viability (0.00152 µM): 1.08 ± 0.032
relative viability (0.00457 µM): 1.04 ± 0.017
relative viability (0.01372 µM): 1.02 ± 0.085
relative viability (0.04115 µM): 1.03 ± 0.014
relative viability (0.1235 µM): 1.09 ± 0.036
relative viability (0.3704 µM): 1.05 ± 0.047
relative viability (1.111 µM): 0.952 ± 0.05
relative viability (3.333 µM): 0.836 ± 0.017
relative viability (10 µM): 0.523 ± 0.021

CCCS(=O)(=O)Nc1ccc(F)c(C(=O)c2c[nH]c3ncc(-c4ccc(Cl)cc4)cc23)c1F [Vemurafenib]
relative viability (0.00017 µM): 1.02 ± 0.061
relative viability (0.00051 µM): 1.06 ± 0.043
relative viability (0.00152 µM): 1.08 ± 0.016
relative viability (0.00457 µM): 1.09 ± 0.022
relative viability (0.01372 µM): 1.06 ± 0.043
relative viability (0.04115 µM): 1.03 ± 0.045
relative viability (0.1235 µM): 1.05 ± 0.025
relative viability (0.3704 µM): 1.1 ± 0.011
relative viability (1.111 µM): 1.04 ± 0.06
relative viability (3.333 µM): 0.891 ± 0.078
relative viability (10 µM): 0.534 ± 0.16

COc1c(OCCCN2CCOCC2)ccc2c1N=C(NC(=O)c1cnc(N)nc1)N1CCN=C21 [Copanlisib]
relative viability (0.00017 µM): 1.02 ± 0.022
relative viability (0.00051 µM): 1.07 ± 0.036
relative viability (0.00152 µM): 1.01 ± 0.021
relative viability (0.00457 µM): 0.808 ± 0.019
relative viability (0.01372 µM): 0.629 ± 0.015
relative viability (0.04115 µM): 0.4325 ± 0.0023
relative viability (0.1235 µM): 0.3049 ± 0.0025
relative viability (0.3704 µM): 0.214 ± 0.016
relative viability (1.111 µM): 0.15 ± 0.0035
relative viability (3.333 µM): 0.0822 ± 0.0034
relative viability (10 µM): 0.0455 ± 0.0028

CC(=O)Nc1cccc(-n2c(=O)n(C3CC3)c(=O)c3c(Nc4ccc(I)cc4F)n(C)c(=O)c(C)c32)c1 [Trametinib]
relative viability (0.00017 µM): 1.03 ± 0.035
relative viability (0.00051 µM): 1.04 ± 0.025
relative viability (0.00152 µM): 0.987 ± 0.031
relative viability (0.00457 µM): 0.99 ± 0.028
relative viability (0.01372 µM): 0.937 ± 0.077
relative viability (0.04115 µM): 0.984 ± 0.063
relative viability (0.1235 µM): 0.976 ± 0.031
relative viability (0.3704 µM): 0.969 ± 0.048
relative viability (1.111 µM): 0.962 ± 0.05
relative viability (3.333 µM): 0.948 ± 0.059
relative viability (10 µM): 0.923 ± 0.017

COCc1c(-c2cc3cc(C)cc(OC)c3s2)c2c(N)ncnn2c1CN1CCNC(=O)C1 [Rogaratinib]
relative viability (0.00017 µM): 1.04 ± 0.043
relative viability (0.00051 µM): 1.03 ± 0.044
relative viability (0.00152 µM): 1.02 ± 0.035
relative viability (0.00457 µM): 1.03 ± 0.049
relative viability (0.01372 µM): 1.07 ± 0.045
relative viability (0.04115 µM): 1.05 ± 0.065
relative viability (0.1235 µM): 0.982 ± 0.062
relative viability (0.3704 µM): 0.97 ± 0.011
relative viability (1.111 µM): 0.848 ± 0.075
relative viability (3.333 µM): 0.659 ± 0.027
relative viability (10 µM): 0.463 ± 0.03

COc1cc2/c(=N/c3ccc(Br)cc3F)nc[nH]c2cc1OCC1CCN(C)CC1 [Vandetanib]
relative viability (0.00017 µM): 1 ± 0.03
relative viability (0.00051 µM): 0.992 ± 0.024
relative viability (0.00152 µM): 1.02 ± 0.037
relative viability (0.00457 µM): 1.033 ± 0.0099
relative viability (0.01372 µM): 1.06 ± 0.035
relative viability (0.04115 µM): 0.989 ± 0.051
relative viability (0.1235 µM): 1.008 ± 0.0093
relative viability (0.3704 µM): 0.917 ± 0.033
relative viability (1.111 µM): 0.762 ± 0.032
relative viability (3.333 µM): 0.389 ± 0.0099
relative viability (10 µM): 0.0169 ± 0.0022
